From patent publication US6737383B1, “Herbicidal oxadiazolidines” (priority 1999, dated 2004)

Columns and labels:
velvetleaf = assay: Test A velvetleaf; type: in vivo, Abutilon theophrasti; settings: 0 to 10 scale where 0 is no effect and 10 is complete control
Summary of the method: (§1)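 Visual injury score, 0 (no effect) to 10 (complete control), vs untreated controls at ~11 d in greenhouse. Pre: soil drench on sandy loam. Post: spray to runoff, 1–2 leaf stage.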

morningglory = assay: Test A morningglory; type: in vivo, Ipomoea spp.; settings: 0 to 10 scale where 0 is no effect and 10 is complete control
Summary of the method: as §1

surinam grass = assay: Test C postemergence surinam grass; type: in vivo, Brachiaria decumbens; settings: 0 to 100 scale, 0 no effect, 100 complete control
Summary of the method: (§2)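 Compounds in a non-phytotoxic solvent mixture with surfactant were sprayed postemergence on greenhouse-grown plants sized for treatment, in 60:40 sandy loam soil:potting mix. After about 14 to 21 days, injury was rated visually against untreated controls on a 0–100 scale (0 no effect, 100 complete control).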

hairy beggarticks = assay: Test C postemergence hairy beggarticks; type: in vivo, Bidens pilosa; settings: 0 to 100 scale, 0 no effect, 100 complete control
Description: (§3) Compounds evaluated in this test were formulated in a non-phytotoxic solvent mixture which included a surfactant and applied to plants that were grown for various periods of time before treatment (postemergence application). A mixture of sandy loam soil and greenhouse potting mix in a 60:40 ratio was used for the postemergence test.
(§4) Plantings of these crops and weed species were adjusted to produce plants of appropriate size for the postemergence test. All plant species were grown using normal greenhouse practices. Crop and weed species include arrowleaf sida (Sida rhombifolia), barnyardgrass (Echinochloa crus-galli), cocklebur (Xanthium strumarium), common ragweed (Ambrosia elatior), corn (Zea mays), cotton (Gossypium hirsutum), eastern black nightshade (Solanum ptycanthum), fall panicum (Panicum dichotomiflorum), field bindweed (Convolvulus arvensis), giant foxtail (Setaria faberii), hairy beggarticks (Bidens pilosa), ivyleaf morningglory (Ipomoea hederacea), johnsongrass (Sorghum halepense), ladysthumb smartweed (Polygonum persicaria), lambsquarters (Chenopodium album), large crabgrass (Digitaria sanguinalis), purple nutsedge (Cyperus rotundus), redroot pigweed (Amaranthus retroflexus), soybean (Glycine max), surinam grass (Brachiaria decumbens), velvetleaf (Abutilon theophrasti) and wild poinsettia (Euphorbia heterophylla).
(§5) Treated plants and untreated controls were maintained in a greenhouse for approximately 14, to 21 days, after which all treated plants were compared to untreated controls and visually evaluated. Plant response ratings, summarized in Table C, were based upon a 0 to 100 scale where 0 was no effect and 100 was complete control. A dash response (−) means no test result.

purple nutsedge = assay: Test C postemergence purple nutsedge; type: in vivo, Cyperus rotundus; settings: 0 to 100 scale, 0 no effect, 100 complete control
Description: as §3, §4, §5

giant foxtail = assay: Test C postemergence giant foxtail; type: in vivo, Setaria faberii; settings: 0 to 100 scale, 0 no effect, 100 complete control
Description: as §3, §4, §5

common ragweed = assay: Test C postemergence common ragweed; type: in vivo, Ambrosia elatior; settings: 0 to 100 scale, 0 no effect, 100 complete control
Summary of the method: as §2

lambsquarters = assay: Test C postemergence lambsquarters; type: in vivo, Chenopodium album; settings: 0 to 100 scale, 0 no effect, 100 complete control
Description: as §3, §4, §5

eastern black nightshade = assay: Test C postemergence eastern black nightshade; type: in vivo, Solanum ptycanthum; settings: 0 to 100 scale, 0 no effect, 100 complete control
Summary of the method: as §2

large crabgrass = assay: Test C postemergence large crabgrass; type: in vivo, Digitaria sanguinalis; settings: 0 to 100 scale, 0 no effect, 100 complete control
Description: as §3, §4, §5

cocklebur = assay: Test C postemergence cocklebur; type: in vivo, Xanthium strumarium; settings: 0 to 100 scale, 0 no effect, 100 complete control
Description: as §3, §4, §5

ivyleaf morningglory = assay: Test C postemergence ivyleaf morningglory; type: in vivo, Ipomoea hederacea; settings: 0 to 100 scale, 0 no effect, 100 complete control
Description: as §3, §4, §5

redroot pigweed = assay: Test C postemergence redroot pigweed; type: in vivo, Amaranthus retroflexus; settings: 0 to 100 scale, 0 no effect, 100 complete control
Description: as §3, §4, §5

corn = assay: Test C postemergence corn; type: in vivo, Zea mays; settings: 0 to 100 scale, 0 no effect, 100 complete control
Summary of the method: as §2

cotton = assay: Test C postemergence cotton; type: in vivo, Gossypium hirsutum; settings: 0 to 100 scale, 0 no effect, 100 complete control
Description: as §3, §4, §5

field bindweed = assay: Test C postemergence field bindweed; type: in vivo, Convolvulus arvensis; settings: 0 to 100 scale, 0 no effect, 100 complete control
Summary of the method: as §2

## CC(C)N(C(=O)n1oc(=O)n(C2CCCC(C(F)(F)F)C2)c1=O)c1ccc(F)cc1 (stereo not drawn) [Compound 184]
velvetleaf; Postemergence, Rate 1000 g/ha
  Plant response rating, Velvetleaf: 2
velvetleaf; Pre-emergence, Rate 2000 g/ha
  Plant response rating, Velvetleaf: 0
morningglory; Postemergence, Rate 1000 g/ha
  Plant response rating, Morningglory: 10
morningglory; Pre-emergence, Rate 2000 g/ha
  Plant response rating, Morningglory: 0

## Cc1ccccc1-n1c(=O)on(C(=O)N(c2cc(OC(C)C)c(Cl)cc2Cl)C(C)C)c1=O [Compound 42]
velvetleaf; Postemergence, Rate 1000 g/ha
  Plant response rating, Velvetleaf: 0
velvetleaf; Pre-emergence, Rate 2000 g/ha
  Plant response rating, Velvetleaf: 0
morningglory; Postemergence, Rate 1000 g/ha
  Plant response rating, Morningglory: 0
morningglory; Pre-emergence, Rate 2000 g/ha
  Plant response rating, Morningglory: 0

## CCN(C(=O)n1oc(=O)n(N(C)c2ccccc2)c1=O)C1CCCCC1 [Compound 183]
velvetleaf; Postemergence, Rate 1000 g/ha
  Plant response rating, Velvetleaf: 0
velvetleaf; Pre-emergence, Rate 2000 g/ha
  Plant response rating, Velvetleaf: 0
morningglory; Postemergence, Rate 1000 g/ha
  Plant response rating, Morningglory: 0
morningglory; Pre-emergence, Rate 2000 g/ha
  Plant response rating, Morningglory: 0

## CC(C)N(C(=O)n1oc(=O)n(Cc2ccccc2)c1=O)c1ccccc1 [Compound 94]
Surinam grass; Rate 140 g/ha
  Plant response rating Surinam grass: 0
Surinam grass; Rate 280 g/ha
  Plant response rating Surinam grass: 0
Surinam grass; Rate 560 g/ha
  Plant response rating Surinam grass: 0
Surinam grass; Rate 1120 g/ha
  Plant response rating Surinam grass: 10
Hairy beggarticks; Rate 140 g/ha
  Plant response rating H. beggarticks: 0
Hairy beggarticks; Rate 280 g/ha
  Plant response rating H. beggarticks: 0
Hairy beggarticks; Rate 560 g/ha
  Plant response rating H. beggarticks: 5
Hairy beggarticks; Rate 1120 g/ha
  Plant response rating H. beggarticks: 20
Purple nutsedge; Rate 140 g/ha
  Plant response rating, Purple nutsedge: 0
Purple nutsedge; Rate 280 g/ha
  Plant response rating, Purple nutsedge: 0
Purple nutsedge; Rate 560 g/ha
  Plant response rating, Purple nutsedge: 0
Purple nutsedge; Rate 1120 g/ha
  Plant response rating, Purple nutsedge: 0
Giant foxtail; Rate 140 g/ha
  Plant response rating, Giant foxtail: 0
Giant foxtail; Rate 280 g/ha
  Plant response rating, Giant foxtail: 0
Giant foxtail; Rate 560 g/ha
  Plant response rating, Giant foxtail: 10
Giant foxtail; Rate 1120 g/ha
  Plant response rating, Giant foxtail: 40
Common ragweed; Rate 140 g/ha
  Plant response rating Common ragweed: 0
Common ragweed; Rate 280 g/ha
  Plant response rating Common ragweed: 0
Common ragweed; Rate 560 g/ha
  Plant response rating Common ragweed: 5
Common ragweed; Rate 1120 g/ha
  Plant response rating Common ragweed: 5
lambsquarters; Rate 140 g/ha
  Plant response rating Lambsquarters: 0
lambsquarters; Rate 280 g/ha
  Plant response rating Lambsquarters: 5
lambsquarters; Rate 560 g/ha
  Plant response rating Lambsquarters: 10
lambsquarters; Rate 1120 g/ha
  Plant response rating Lambsquarters: 30
Eastern black nightshade; Rate 140 g/ha
  Plant response rating E. blacknightsh: 0
Eastern black nightshade; Rate 280 g/ha
  Plant response rating E. blacknightsh: 40
Eastern black nightshade; Rate 560 g/ha
  Plant response rating E. blacknightsh: 75
Eastern black nightshade; Rate 1120 g/ha
  Plant response rating E. blacknightsh: 95
Large crabgrass; Rate 140 g/ha
  Plant response rating Large crabgrass: 0
Large crabgrass; Rate 280 g/ha
  Plant response rating Large crabgrass: 0
Large crabgrass; Rate 560 g/ha
  Plant response rating Large crabgrass: 70
cocklebur; Rate 140 g/ha
  Plant response rating, Cocklebur: 0
cocklebur; Rate 280 g/ha
  Plant response rating, Cocklebur: 0
Ivyleaf morningglory; Rate 140 g/ha
  Plant response rating I. morningglory: 0
Ivyleaf morningglory; Rate 280 g/ha
  Plant response rating I. morningglory: 10
Ivyleaf morningglory; Rate 560 g/ha
  Plant response rating I. morningglory: 90
Redroot pigweed; Rate 560 g/ha
  Plant response rating, Redroot pigweed: 0
Redroot pigweed; Rate 1120 g/ha
  Plant response rating, Redroot pigweed: 0
corn; Rate 140 g/ha
  Plant response rating, Corn: 0
corn; Rate 280 g/ha
  Plant response rating, Corn: 0
corn; Rate 560 g/ha
  Plant response rating, Corn: 0
corn; Rate 1120 g/ha
  Plant response rating, Corn: 0
cotton; Rate 140 g/ha
  Plant response rating Cotton: 20
cotton; Rate 280 g/ha
  Plant response rating Cotton: 70
cotton; Rate 560 g/ha
  Plant response rating Cotton: 70
cotton; Rate 1120 g/ha
  Plant response rating Cotton: 80
Field bindweed; Rate 140 g/ha
  Plant response rating Field bindweed: 0
Field bindweed; Rate 280 g/ha
  Plant response rating Field bindweed: 0
Field bindweed; Rate 560 g/ha
  Plant response rating Field bindweed: 0
Field bindweed; Rate 1120 g/ha
  Plant response rating Field bindweed: 0

## CC(C)N(C(=O)n1oc(=O)n(C)c1=O)c1ccc(Cl)cc1 [Compound 137]
velvetleaf; Postemergence, Rate 1000 g/ha
  Plant response rating, Velvetleaf: 2
velvetleaf; Pre-emergence, Rate 2000 g/ha
  Plant response rating, Velvetleaf: 5
morningglory; Postemergence, Rate 1000 g/ha
  Plant response rating, Morningglory: 10
morningglory; Pre-emergence, Rate 2000 g/ha
  Plant response rating, Morningglory: 3

## CC(C)N(C(=O)n1oc(=O)n(N(C)c2ccccc2)c1=O)c1ccc(F)cc1 [Compound 177]
velvetleaf; Postemergence, Rate 1000 g/ha
  Plant response rating, Velvetleaf: 2
velvetleaf; Pre-emergence, Rate 2000 g/ha
  Plant response rating, Velvetleaf: 1
morningglory; Postemergence, Rate 1000 g/ha
  Plant response rating, Morningglory: 0
morningglory; Pre-emergence, Rate 2000 g/ha
  Plant response rating, Morningglory: 0

## CC(C)N(C(=O)n1oc(=O)n(C(C)C)c1=O)c1ccc(F)cc1F [Compound 109]
Surinam grass; Rate 140 g/ha
  Plant response rating Surinam grass: 0
Surinam grass; Rate 280 g/ha
  Plant response rating Surinam grass: 5
Surinam grass; Rate 560 g/ha
  Plant response rating Surinam grass: 50
Surinam grass; Rate 1120 g/ha
  Plant response rating Surinam grass: 95
Hairy beggarticks; Rate 280 g/ha
  Plant response rating H. beggarticks: 5
Hairy beggarticks; Rate 560 g/ha
  Plant response rating H. beggarticks: 70
Hairy beggarticks; Rate 1120 g/ha
  Plant response rating H. beggarticks: 85
Purple nutsedge; Rate 140 g/ha
  Plant response rating, Purple nutsedge: 0
Purple nutsedge; Rate 280 g/ha
  Plant response rating, Purple nutsedge: 0
Purple nutsedge; Rate 560 g/ha
  Plant response rating, Purple nutsedge: 0
Purple nutsedge; Rate 1120 g/ha
  Plant response rating, Purple nutsedge: 0
Giant foxtail; Rate 140 g/ha
  Plant response rating, Giant foxtail: 50
Giant foxtail; Rate 280 g/ha
  Plant response rating, Giant foxtail: 80
Giant foxtail; Rate 560 g/ha
  Plant response rating, Giant foxtail: 80
Giant foxtail; Rate 1120 g/ha
  Plant response rating, Giant foxtail: 85
Common ragweed; Rate 140 g/ha
  Plant response rating Common ragweed: 5
Common ragweed; Rate 280 g/ha
  Plant response rating Common ragweed: 10
Common ragweed; Rate 560 g/ha
  Plant response rating Common ragweed: 10
Common ragweed; Rate 1120 g/ha
  Plant response rating Common ragweed: 20
lambsquarters; Rate 140 g/ha
  Plant response rating Lambsquarters: 10
lambsquarters; Rate 280 g/ha
  Plant response rating Lambsquarters: 10
lambsquarters; Rate 560 g/ha
  Plant response rating Lambsquarters: 30
lambsquarters; Rate 1120 g/ha
  Plant response rating Lambsquarters: 70
Eastern black nightshade; Rate 140 g/ha
  Plant response rating E. blacknightsh: 50
Eastern black nightshade; Rate 280 g/ha
  Plant response rating E. blacknightsh: 80
Eastern black nightshade; Rate 1120 g/ha
  Plant response rating E. blacknightsh: 95
Large crabgrass; Rate 140 g/ha
  Plant response rating Large crabgrass: 10
Large crabgrass; Rate 280 g/ha
  Plant response rating Large crabgrass: 60
Large crabgrass; Rate 560 g/ha
  Plant response rating Large crabgrass: 90
Large crabgrass; Rate 1120 g/ha
  Plant response rating Large crabgrass: 90
cocklebur; Rate 140 g/ha
  Plant response rating, Cocklebur: 30
cocklebur; Rate 280 g/ha
  Plant response rating, Cocklebur: 30
cocklebur; Rate 560 g/ha
  Plant response rating, Cocklebur: 60
Ivyleaf morningglory; Rate 140 g/ha
  Plant response rating I. morningglory: 0
Ivyleaf morningglory; Rate 280 g/ha
  Plant response rating I. morningglory: 50
Ivyleaf morningglory; Rate 560 g/ha
  Plant response rating I. morningglory: 50
Ivyleaf morningglory; Rate 1120 g/ha
  Plant response rating I. morningglory: 70
Redroot pigweed; Rate 140 g/ha
  Plant response rating, Redroot pigweed: 0
Redroot pigweed; Rate 280 g/ha
  Plant response rating, Redroot pigweed: 40
Redroot pigweed; Rate 560 g/ha
  Plant response rating, Redroot pigweed: 70
Redroot pigweed; Rate 1120 g/ha
  Plant response rating, Redroot pigweed: 85
corn; Rate 140 g/ha
  Plant response rating, Corn: 0
corn; Rate 280 g/ha
  Plant response rating, Corn: 0
corn; Rate 560 g/ha
  Plant response rating, Corn: 5
corn; Rate 1120 g/ha
  Plant response rating, Corn: 55
cotton; Rate 140 g/ha
  Plant response rating Cotton: 10
cotton; Rate 280 g/ha
  Plant response rating Cotton: 50
cotton; Rate 560 g/ha
  Plant response rating Cotton: 70
cotton; Rate 1120 g/ha
  Plant response rating Cotton: 70
Field bindweed; Rate 140 g/ha
  Plant response rating Field bindweed: 0
Field bindweed; Rate 280 g/ha
  Plant response rating Field bindweed: 0
Field bindweed; Rate 560 g/ha
  Plant response rating Field bindweed: 10
Field bindweed; Rate 1120 g/ha
  Plant response rating Field bindweed: 10
